Reference: paper PMC5207132, “New Insights into the Cyclic Di-adenosine Monophosphate (c-di-AMP) Degradation Pathway and the Requirement of the Cyclic Dinucleotide for Acid Stress Resistance in Staphylococcus aureus” (The Journal of Biological Chemistry, 2016)

Experiments:
[1] = target: T1, GdpP (Staphylococcus aureus, UniProt A0A0H2XJV8); experiment: radiolabelled c-di-AMP hydrolysis, TLC; type: biochemical
T1 construct: gene SAUSA300_0014

[2] = target: T2, Pde2 (Staphylococcus aureus, UniProt A0A0H2XFX6); experiment: radiolabelled pApA hydrolysis, TLC; type: biochemical
T2 construct: gene SAUSA300_1650
T2 sequence (A0A0H2XFX6 entry or part of it): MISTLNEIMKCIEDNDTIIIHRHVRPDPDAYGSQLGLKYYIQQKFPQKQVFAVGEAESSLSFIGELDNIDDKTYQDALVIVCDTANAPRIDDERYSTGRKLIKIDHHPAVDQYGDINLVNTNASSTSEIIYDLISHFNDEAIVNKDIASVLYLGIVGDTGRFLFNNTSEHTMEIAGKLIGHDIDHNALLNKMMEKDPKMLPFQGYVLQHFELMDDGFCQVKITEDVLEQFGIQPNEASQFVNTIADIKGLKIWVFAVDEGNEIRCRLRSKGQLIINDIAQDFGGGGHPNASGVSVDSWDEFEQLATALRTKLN

T1 sequence (A0A0H2XJV8 entry or part of it): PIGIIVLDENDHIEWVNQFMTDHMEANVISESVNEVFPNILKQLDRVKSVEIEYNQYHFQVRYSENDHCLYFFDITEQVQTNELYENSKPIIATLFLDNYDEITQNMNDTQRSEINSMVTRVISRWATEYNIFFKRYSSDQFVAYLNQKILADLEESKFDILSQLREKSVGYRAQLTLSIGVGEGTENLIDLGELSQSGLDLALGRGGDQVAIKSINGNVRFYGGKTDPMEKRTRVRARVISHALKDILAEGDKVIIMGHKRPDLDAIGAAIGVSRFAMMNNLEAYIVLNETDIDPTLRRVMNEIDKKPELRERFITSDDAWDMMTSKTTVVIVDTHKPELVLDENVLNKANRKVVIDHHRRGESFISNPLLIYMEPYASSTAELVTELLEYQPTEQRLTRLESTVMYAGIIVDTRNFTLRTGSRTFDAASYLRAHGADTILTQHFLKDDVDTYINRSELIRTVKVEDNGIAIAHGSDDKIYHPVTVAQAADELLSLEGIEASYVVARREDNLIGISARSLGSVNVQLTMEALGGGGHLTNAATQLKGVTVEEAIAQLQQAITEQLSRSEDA

Q: For `Nc1ncnc2c1ncn2[C@@H]1O[C@H](COP(=O)(O)O[C@H]2[C@@H](O)[C@H](n3cnc4c(N)ncnc43)O[C@@H]2COP(=O)(O)O)[C@@H](O)[C@H]1O` [pApA], which IC50 [1] is on record?
A: The IC50 was 78 ± 2.34 µM.

Q: How did the IC50 [2] turn out when `Nc1nc2c(ncn2[C@@H]2O[C@H](COP(=O)(O)OP(=O)(O)O)[C@@H](OP(=O)(O)OP(=O)(O)O)[C@H]2O)c(=O)[nH]1` [ppGpp] was run?
A: Its IC50 is 139 ± 5.6 µM.
